We go through 3 compounds from patent US5001235A, “Antibiotic beta-lactams containing a pyridone carboxylic acid or acid derivative” (The Upjohn Company, priority 1989, dated 1991).

≈ marks a conversion by molar mass, not a printed value. Structures can show the parent of a compound that is named as a salt. Where two headings read alike, the source gives them in different places. A value given as a limit tells only on which side of the number the result lay.

Test in all cases: MIC by agar dilution (Mueller Hinton Agar)
Format in all cases: cell-based
On the technique in general: Agar dilution tests growth on a series of plates holding different concentrations.

One test relates to Streptococcus pneumoniae. Particulars: Culture Number 41, MHA, 35° C., 20 hours, read-out: Minimum Inhibitory Concentration. On the procedure:
(§1) The compounds of this invention and their respective pharmacologically acceptable salts have antibiotic activity against a variety of gram-negative bacteria including Escherichia coli, Klebsiella pneumoniae, and Pseudomonas aeruginosa. The compounds are useful for treating bacterial infections in animals, including and most preferably humans. Compounds of the invention are tested for in vitro antimicrobial activity using standard testing procedures such as the determination of minimum inhibitory concentration (MIC) by agar dilution as described in "Methods for Dilution Antimicrobial Susceptibility Tests for Bacteria That Grow Aerobically" (M7-A) Published December 1985 by the National Committee for Clinical Laboratory Standards, 771 East Lancaster Avenue, Villanova, Pa. 19084. Briefly, MIC values are determined in unsupplemented Mueller Hinton Agar (MHA). The compounds tested are diluted serially into molten MHA at 47° C. The agar is poured into petri dishes and allowed to harden. The various bacteria used for testing are grown overnight on MHA at 35° C. and transferred to Tryptiease Soy Broth (TSB) until a turbidity of 0.5 McFarland standard is obtained. The bacteria are diluted one to 20 in TSB and inoculated on the plates (1 μl using a Steers replicator). […] The MIC test results of two typical compounds of this invention, Compound 14 which is (3S)-3-[2-(2-Amino-4-thiazolyl)-Z-(2)-carboxyisopropyloxyimino)acetamido]- 1-[(3-carboxy-4-pyridon-6-yl)-carbonylamino-1-(2-imidazolidone-3-yl)sulfonylaminocarbonyl]-2-azetidinone trisodium salt and Compound 17 which is (3S)-3-[2-(2-Amino-4-thiazolyl)-Z-(2)-(carboxyisopropyloxyamino)acetamido]-1-[(3-hydroxyaminocarbonyl-4-pyridon-6-yl)carbonylamino-1-(2-imidazolidone-3-yl)sulfonylaminocarbonyl]-2-azetidinone, are given in Table I.

The next test deals with Proteus vulgaris. Particulars: Culture Number 9679, MHA, 35° C., 20 hours, read-out: Minimum Inhibitory Concentration. On the procedure:
as §1

In a further test the test system is Serratia marcescens. Particulars: Culture Number 6888, MHA, 35° C., 20 hours, read-out: Minimum Inhibitory Concentration. The protocol:
as §1

Another test deals with Streptococcus faecalis. Particulars: Enterococcus faecalis; Culture Number 694; MHA, 35° C., 20 hours; read-out: Minimum Inhibitory Concentration. On the procedure:
as §1

Another test relates to Pseudomonas aeruginosa. On the procedure:
as §1

The test system of another test is Citrobacter freundli. Particulars: Culture Number 3507, MHA, 35° C., 20 hours, read-out: Minimum Inhibitory Concentration. The protocol: as §1
A further test relates to Staphylococcus aureus. Particulars: MHA, 35° C., 20 hours; for MIC: Staphylococcus aureus, Culture Number 9218, read-out: Minimum Inhibitory Concentration. The protocol: as §1
A further test concerns Escherichia coli. Particulars: 20 h, 35° C., read-out: Minimum Inhibitory Concentration. The protocol: as §1
The subject of the next test is Enterobacter cloacae. Particulars: 20 h, 35° C., read-out: Minimum Inhibitory Concentration. On the procedure:
as §1

The next test relates to Klebsiella pneumoniae. Particulars: Culture Number 58, MHA, 35° C., 20 hours, read-out: Minimum Inhibitory Concentration. The protocol: as §1
In a further test the test system is Klebsiella oxytoca. Particulars: 20 h, 35° C., read-out: Minimum Inhibitory Concentration. On the procedure:
as §1

A further test has as its system Streptococcus pyogenes. Particulars: Culture Number 152, MHA, 35° C., 20 hours, read-out: Minimum Inhibitory Concentration. The protocol: as §1
Setting [1] is: 20 h, Culture Number 231, MHA, 35° C., 20 hours, read-out: Minimum Inhibitory Concentration.
Setting [2] is: 20 h, Culture Number 9191, MHA, 35° C., 20 hours, read-out: Minimum Inhibitory Concentration.

In the case of `CC(C)(O/N=C(\C(=O)N[C@H]1CN(C(=O)NS(=O)(=O)N2CCN(NC(=O)c3cc(=O)c(C(=O)NO)c[nH]3)C2=O)C1=O)c1csc(N)n1)C(=O)O` [Compound 17, (3S)-3-[2-(2-Amino-4-thiazolyl)-Z-(2)-(carboxyisopropyloxyamino)acetamido]-1-[(3-hydroxyaminocarbonyl-4-pyridon-6-yl)carbonylamino-1-(2-imidazolidone-3-yl)sulfonylaminocarbonyl]-2-azetidinone], the MIC in the test on Streptococcus pneumoniae was 64 µg/mL (≈ 88 µM); with Proteus vulgaris it was 0.125 µg/mL (≈ 0.172 µM); in the test on Serratia marcescens, 2 µg/mL (≈ 2.75 µM); in the test with Streptococcus faecalis it was more than 128 µg/mL; with Pseudomonas aeruginosa (setting [1]), 4 µg/mL (≈ 5.5 µM); in the test on Pseudomonas aeruginosa (setting [2]), 4 µg/mL (≈ 5.5 µM). In addition, the MIC with Citrobacter freundli is 0.25 µg/mL (≈ 0.344 µM); in the test with Staphylococcus aureus, more than 128 µg/mL; with Escherichia coli (Culture Number 9379, MHA), 0.5 µg/mL (≈ 0.687 µM); in the test with Escherichia coli (Culture Number 9380, MHA), 0.5 µg/mL (≈ 0.687 µM); with Escherichia coli (Culture Number 9451, MHA), 0.25 µg/mL (≈ 0.344 µM); in the test with Enterobacter cloacae (Culture Number 9381, MHA) it was 64 µg/mL (≈ 88 µM). For the same compound, the MIC with Enterobacter cloacae (Culture Number 9382, MHA) was 2 µg/mL (≈ 2.75 µM); with Klebsiella pneumoniae it was 0.5 µg/mL (≈ 0.687 µM); in the test with Klebsiella oxytoca (Culture Number 9383, MHA), 4 µg/mL (≈ 5.5 µM); in the test on Klebsiella oxytoca (Culture Number 9384, MHA), 0.5 µg/mL (≈ 0.687 µM); with Streptococcus pyogenes it was 4 µg/mL (≈ 5.5 µM). For the same compound, the “Minimum Inhibitory Concentration” value in the test with Staphylococcus aureus (Culture Number 3665) and in the test on Staphylococcus aureus (Culture Number 6685) was more than 128 µg/mL each time.

In the case of `CC(C)(O/N=C(\C(=O)N[C@H]1CN(C(=O)NS(=O)(=O)N2CCN(NC(=O)c3cc(=O)c(C(N)=O)c[nH]3)C2=O)C1=O)c1csc(N)n1)C(=O)O` [Compound 18], the MIC in the test with Pseudomonas aeruginosa (pseudomonas aeruginosa Culture No. 231, given in text for Compound 18, read-out: M/C) turned out to be 8 µg/mL (≈ 11.2 µM).

For `CC(C)(O/N=C(\C(=O)N[C@H]1CN(C(=O)NS(=O)(=O)N2CCN(NC(=O)c3cc(=O)c(C(=O)O)c[nH]3)C2=O)C1=O)c1csc(N)n1)C(=O)O` [Compound 14, (3S)-3-[2-(2-Amino-4-thiazolyl)-Z-(2)-carboxyisopropyloxyimino)acetamido]-1-[(3-carboxy-4-pyridon-6-yl)-carbonylamino-1-(2-imidazolidone-3-yl)sulfonylaminocarbonyl]-2-azetidinone trisodium salt], the MIC in the test with Streptococcus pneumoniae was 64 µg/mL; in the test on Proteus vulgaris, 0.06 µg/mL; in the test with Serratia marcescens it was 0.5 µg/mL; with Streptococcus faecalis, more than 128 µg/mL; in the test on Pseudomonas aeruginosa (setting [1]), 0.5 µg/mL; in the test on Pseudomonas aeruginosa (setting [2]) it was 1 µg/mL. Moreover, the MIC in the test with Citrobacter freundli is 0.25 µg/mL; in the test on Staphylococcus aureus, more than 128 µg/mL; with Escherichia coli (Culture Number 9379, MHA), 0.25 µg/mL; with Escherichia coli (Culture Number 9380, MHA), 0.125 µg/mL; with Escherichia coli (Culture Number 9451, MHA) it was 0.125 µg/mL; in the test with Enterobacter cloacae (Culture Number 9381, MHA) it was 64 µg/mL. Further, the MIC in the test on Enterobacter cloacae (Culture Number 9382, MHA) was determined as 0.5 µg/mL; in the test on Klebsiella pneumoniae, 0.5 µg/mL; in the test on Klebsiella oxytoca (Culture Number 9383, MHA), 4 µg/mL; in the test with Klebsiella oxytoca (Culture Number 9384, MHA), 0.25 µg/mL; in the test on Streptococcus pyogenes, 4 µg/mL. The “Minimum Inhibitory Concentration” value in the test with Staphylococcus aureus (Culture Number 3665) and with Staphylococcus aureus (Culture Number 6685) was more than 128 µg/mL throughout.
